Source: US20100004272A1, “Modulators of metabolism and the treatment of disorders related thereto” (ARENA PHARMACEUTICALS, INC., priority 2006, published 2010)

Tests used:
[1] = tested on: Male Sprague Dawley rats; test: Oral glucose tolerance test (oGTT) in rats; assay type: in vivo, rat; details: fasted male Sprague Dawley rats, p.o. 30 min before dextrose 3 g/kg, doses 0.3, 3 or 30 mg/kg (dose of this value not stated), mean of six animals
Protocol: General Procedure—Oral Glucose tolerance test (oGTT)
Male Sprague Dawley rats (Harlan, San Diego, Calif.) weighing approximately 350-375 g were fasted for 16 hours and randomly grouped (n=6) to receive a RUP3 agonist at 0.3, 3 or 30 mg/kg. Compounds were delivered orally via a gavage needle (p.o., volume 2 mL/kg). At time 0, levels of blood glucose were assessed using a glucometer (Accu-Chek Advantage, Roche Diagnostics), and rats were administered either vehicle (20% hydroxypropyl-beta-cyclodextrin) or test compound. Thirty minutes after administration of test compound, levels of blood glucose were again assessed, and rats were administered dextrose orally at a dose of 3 g/kg. Blood glucose measurements were then taken 30 min, 60 min, and 120 min after this time.

[2] = biological target: T1, RUP3 receptor (Mus musculus, UniProt Q7TQP3); test: RUP3 dose response in melanophores (mouse RUP3); assay type: cell-based
T1 construct: expressed in transfected cells; host or cells: melanophores, electroporated
T1 sequence (Q7TQP3 1-335): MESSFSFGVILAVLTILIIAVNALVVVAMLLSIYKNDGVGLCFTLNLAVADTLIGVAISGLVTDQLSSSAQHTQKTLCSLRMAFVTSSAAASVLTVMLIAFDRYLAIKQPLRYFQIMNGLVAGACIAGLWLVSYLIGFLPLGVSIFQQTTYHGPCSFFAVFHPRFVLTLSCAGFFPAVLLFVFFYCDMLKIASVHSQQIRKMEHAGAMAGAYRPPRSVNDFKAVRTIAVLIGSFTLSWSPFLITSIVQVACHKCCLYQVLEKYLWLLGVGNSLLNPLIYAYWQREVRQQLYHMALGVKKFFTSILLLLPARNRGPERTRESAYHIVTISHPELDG
Protocol: (§1) Melanophores are maintained in culture as reported by Potenza, M. N. and Lerner, M. R., in Pigment Cell Research, Vol. 5, 372-378, 1992 and transfected with the RUP3 expression vector (pCMV) using electroporation. Following electroporation, the transfected cells are plated into 96 well plates for the assay. The cells are then allowed to grow for 48 hours in order to both recover from the electroporation procedure and attain maximal receptor expression levels. On the assay day, the growth medium on the cells is replaced with serum-free buffer containing 10 nM melatonin. The melatonin acts via an endogenous Gi-coupled GPCR in the melanophores to lower intracellular cAMP levels. In response to lowered cAMP levels, the melanophores translocate their pigment to the center of the cell. The net effect of this is a significant decrease in the absorbance reading of the cell monolayer in the well, measured at […]. After a 1-hour incubation in melatonin, the cells become completely pigment-aggregated. At this point a baseline absorbance reading is collected. Serial dilutions of test compounds are then added to the plate and compounds that stimulate RUP3 produce increases in intracellular cAMP levels. […] The measured increase in absorbance compared to the baseline reading allows one to quantitate the degree of receptor stimulation and plot a dose-response curve.

[3] = biological target: T2, RUP3 receptor (Rattus norvegicus, UniProt Q7TQN8); test: RUP3 dose response in melanophores (rat RUP3); assay type: cell-based
T2 construct: expressed in transfected cells; host or cells: melanophores, electroporated
T2 sequence (Q7TQN8 1-468): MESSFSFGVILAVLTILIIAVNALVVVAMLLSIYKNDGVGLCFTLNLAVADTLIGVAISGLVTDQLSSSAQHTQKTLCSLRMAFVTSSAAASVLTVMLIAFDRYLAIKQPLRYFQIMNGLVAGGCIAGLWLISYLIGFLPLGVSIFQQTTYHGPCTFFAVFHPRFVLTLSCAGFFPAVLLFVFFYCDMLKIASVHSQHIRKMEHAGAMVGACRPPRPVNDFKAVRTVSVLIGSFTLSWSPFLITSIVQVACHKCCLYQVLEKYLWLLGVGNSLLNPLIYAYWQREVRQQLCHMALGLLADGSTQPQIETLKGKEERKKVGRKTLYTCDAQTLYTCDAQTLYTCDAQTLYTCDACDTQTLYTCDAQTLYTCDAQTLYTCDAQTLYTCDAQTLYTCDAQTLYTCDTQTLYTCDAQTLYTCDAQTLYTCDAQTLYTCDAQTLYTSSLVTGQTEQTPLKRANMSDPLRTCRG
Protocol: as §1

[4] = Rat dose-range PK study (dose escalation pharmacokinetics); assay type: in vivo; details: PO 3, 30, 300 mg/Kg, FIG. 1
Protocol: Male SD rats (250-300 g) were purchased from Charles River Laboratory; upon receipt, animals were placed under light-dark cycle (6:30 am-6:30 pm lights on) They were allowed ad libitum access to water and 4 pieces of food daily (Purina Meals Rodent Diet, Product Number 5001).
Compound formulations were prepared as following: The IV injection formulation was prepared in 20% hydroxypropyl-beta-cyclodextrin with concentration of 0.667 mg/mL. The PO formulations were prepared in 0.5% hydroxypropyl methylcellulose with concentrations of […]. The dosing volume for IV injection was 3 mL/Kg and for PO administration was 10 mL/Kg. Four rats were used for each dose group. […]
Plasma samples were prepared as follows. […] Calibration standards were typically prepared in the range of 2.0 ng/mL to 10 μg/mL with linear regression for quantitation. […]
Results were calculated by noncompartmental analysis using WinNonlin Pro version 3.1 based on plasma concentration-time profiles for individual animals. Plasma levels were determined as described above and the oral and intravenous area under the concentration vs. time curve (AUC was calculated using the linear trapezoidal rule up to the last measurable concentration and was then extrapolated to infinity) were compared to determine the % bioavailability (% oF) by the following formula: Dose (IV)*AUC (oral)/Dose (oral)*AUC (IV). […]

[5] = biological target: T3, RUP3 receptor (Canis lupus familiaris, UniProt A0A8I3QZL6); test: RUP3 dose response in melanophores (dog RUP3); assay type: cell-based
T3 sequence (A0A8I3QZL6 1-335): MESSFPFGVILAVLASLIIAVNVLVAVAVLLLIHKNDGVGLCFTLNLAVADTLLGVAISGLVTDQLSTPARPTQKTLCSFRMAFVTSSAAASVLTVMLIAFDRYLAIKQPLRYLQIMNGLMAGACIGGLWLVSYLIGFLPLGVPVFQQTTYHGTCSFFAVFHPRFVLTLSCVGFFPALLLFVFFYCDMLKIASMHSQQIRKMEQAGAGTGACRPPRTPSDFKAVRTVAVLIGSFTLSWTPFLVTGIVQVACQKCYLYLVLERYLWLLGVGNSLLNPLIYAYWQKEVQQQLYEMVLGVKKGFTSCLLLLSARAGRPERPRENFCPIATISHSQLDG
Protocol: as §1

[6] = biological target: T4, RUP3 receptor (Homo sapiens, UniProt Q8TDV5); test: RUP3 dose response in melanophores (human RUP3); assay type: cell-based
T4 construct: expressed in transfected cells; host or cells: melanophores (as per Potenza and Lerner 1992), electroporated
T4 sequence (Q8TDV5 1-335): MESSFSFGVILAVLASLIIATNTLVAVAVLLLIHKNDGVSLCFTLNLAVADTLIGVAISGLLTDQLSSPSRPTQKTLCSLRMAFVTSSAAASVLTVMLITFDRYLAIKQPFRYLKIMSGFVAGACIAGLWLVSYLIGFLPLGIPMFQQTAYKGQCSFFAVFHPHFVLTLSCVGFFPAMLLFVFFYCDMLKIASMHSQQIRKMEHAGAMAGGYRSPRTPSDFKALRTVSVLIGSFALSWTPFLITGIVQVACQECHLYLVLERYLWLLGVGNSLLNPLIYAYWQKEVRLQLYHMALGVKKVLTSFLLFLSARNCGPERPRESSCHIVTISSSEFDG
Protocol: as §1

EC50 [2]: 43 nM
EC50 [3]: 42 nM
EC50 [5]: 8 nM
EC50 [6]: 2 nM
Compound: Cc1nc(S(C)(=O)=O)ccc1Nc1ncnc(OC2CCN(C(=O)OC(C)C)CC2)c1C [Formula (I), 4-[6-(6-methanesulfonyl-2-methyl-pyridin-3-ylamino)-5-methyl-pyrimidin-4-yloxy]-piperidine-1-carboxylic acid isopropyl ester]
mean percent inhibition of glucose excursion [1]: 38%
dose escalation pharmacokinetics (AUC vs. dose linearity) [4]: essentially linear dose escalation pharmacokinetics
